Results reported in patent US20240376085A1 (Janssen Pharmaceutica NV, priority 2021, published 2024).

Key:
[1] = test system: IL-17A-induced G-CSF production in human normal keratinocyte (NHK); assay: NHK assay: IL-17A-induced G-CSF production in normal human keratinocytes; format: cell-based; details: 24 h, IL-17A 5 ng/mL, average if tested more than once
Procedure, shortened: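 Stimulus rhIL-17A 5 ng/mL final, premixed 1 h rt with compound; adult NHK, 5% FBS, 0.2% DMSO. Viability by CellTiter-Glo vs DMSO.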

IL-17A : IL-17RA binding = biological target: T1, IL-17A : IL-17RA binding (Homo sapiens, UniProt Q16552, K93Q); assay: IL-17A(FLAG-tagged):IL-17RA(His-tagged) binding disruption Eu-HTRF assay, Protocol 1; details: FLAG-IL-17A 2.5 nM at 2x final concentration; average if tested more than once
T1 construct: Name: IL-17A-Flag
Procedure, shortened: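 IC50 came from a one-site competition fit of the acceptor/donor (665/620 nm) HTRF ratio. His-tagged IL-17RA, Eu-anti-FLAG and D2-anti-His were added after a 1 h rt compound preincubation with FLAG-tagged IL-17A dimer in PBS/0.01% Triton X-100, followed by 2 h at rt before reading.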

T1 sequence (Q16552 with tags, fused parts or gaps K93Q): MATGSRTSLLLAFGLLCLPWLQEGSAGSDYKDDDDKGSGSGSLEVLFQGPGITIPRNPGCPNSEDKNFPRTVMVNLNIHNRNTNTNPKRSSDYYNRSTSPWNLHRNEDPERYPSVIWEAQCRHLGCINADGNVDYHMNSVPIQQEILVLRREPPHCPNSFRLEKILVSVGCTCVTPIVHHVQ

Row | SMILES | IC50 ([1]; Homo sapiens, Keratinocyte) [nM] | IC50 (IL-17A : IL-17RA binding) [nM] | IC50 [1] [nM]
1 | CC(C)n1cccc1C(=O)N[C@H](c1nc2cc([C@@H](C)NC(=O)CCC(F)(F)F)ccc2[nH]1)C1CCC(F)(F)CC1 [Example 213, N—((S)-(4,4-Difluorocyclohexyl)(5-((R)-1-(4,4,4-trifluorobutanamido)ethyl)-1H-benzo[d]imidazol-2-yl)methyl)-1-isopropyl-1H-pyrrole-2-carboxamide] | < 50 | < 50 | –
2 | C[C@@H](NC(=O)CCC(F)(F)F)c1ccc2[nH]c([C@@H](NC(=O)[C@H]3C[C@@H]3C#N)C3CCC(F)(F)CC3)nc2c1 (relative stereo) [Example 103, trans-(1S*,2S*)-2-Cyano-N—((S)-(4,4-difluorocyclohexyl)(5-((R)-1-(4,4,4-trifluorobutanamido)ethyl)-1H-benzo[d]imidazol-2-yl)methyl)cyclopropane-1-carboxamide] | > 100 | > 100 | –
3 | C[C@@H](NC(=O)CCC(F)(F)F)c1ccc2[nH]c([C@@H](NC(=O)c3nc(CCC(F)(F)F)cs3)C3CCC(F)(F)CC3)nc2c1 [Example 201, N—((S)-(4,4-Difluorocyclohexyl)(5-((R)-1-(4,4,4-trifluorobutanamido)ethyl)-1H-benzo[d]imidazol-2-yl)methyl)-4-(3,3,3-trifluoropropyl) thiazole-2-carboxamide] | > 100 | > 100 | –
4 | CC(C)n1cnc(C(=O)N[C@H](c2nc3cc([C@@H](C)NC(=O)CCC(F)(F)F)ccc3[nH]2)C2CCC(F)(F)CC2)n1 [Example 39, N—[(S)-(4,4-Difluorocyclohexyl)-[6-[(1R)-1-(4,4,4-trifluorobutanoylamino)ethyl]-1H-benzimidazol-2-yl]methyl]-1-isopropyl-1,2,4-triazole-3-carboxamide] | > 100 | > 100 | –
5 | C[C@@H](NC(=O)CC(C(F)(F)F)C(F)(F)F)c1ccc2[nH]c([C@@H](NC(=O)c3cc(F)ccc3F)C3CCC(F)(F)CC3)nc2c1 [Example 130, N—((S)-(4,4-Difluorocyclohexyl)(6-((R)-1-(4,4,4-trifluoro-3-(trifluoromethyl)butanamido)ethyl)-1H-benzo[d]imidazol-2-yl)methyl)-2,5-difluorobenzamide] | > 100 | > 100 | –
6 | CCCC(NC(=O)CCC(F)(F)F)c1ccc2[nH]c([C@@H](NC(=O)c3ccnn3C)C3CCC(F)(F)CC3)nc2c1 (single isomer, unassigned) [Example 51, N—((S)-(4,4-Difluorocyclohexyl)(5-((R*)-1-(4,4,4-trifluorobutanamido)butyl)-1H-benzo[d]imidazol-2-yl)methyl)-1-methyl-1H-pyrazole-5-carboxamide] | – | > 100 | 50 to 100
7 | Cc1c(C(=O)N[C@H](c2nc3ccc([C@@H](C)NC(=O)CCC(F)(F)F)cc3[nH]2)C2CCC(F)(F)CC2)cnn1CC(F)F [Example 28, N—[(S)-(4,4-Difluorocyclohexyl)-[6-[(1R)-1-(4,4,4-trifluorobutanoylamino)ethyl]-1H-benzimidazol-2-yl]methyl]-1-(2,2-difluoroethyl)-5-methyl-pyrazole-4-carboxamide] | > 100 | > 100 | –
8 | Cc1nonc1C(=O)N[C@@H](CC(C)(C)C(F)F)c1nc2ccc([C@H](NC(=O)CC3CC(F)(F)C3)C3CC3)cc2[nH]1 [Example 233, N—((S)-1-(6-((R)-Cyclopropyl(2-(3,3-difluorocyclobutyl)acetamido)methyl)-1H-benzo[d]imidazol-2-yl)-4,4-difluoro-3,3-dimethylbutyl)-4-methyl-1,2,5-oxadiazole-3-carboxamide] | > 100 | < 50 | –
9 | CC(C)(OC[C@H](NC(=O)c1nonc1C1CC1)c1nc2cc([C@H](NC(=O)CC34CC(F)(C3)C4)C3CC3)ccc2[nH]1)C(F)(F)F [Example 166, 4-Cyclopropyl-N—((R)-1-(5-((R)-cyclopropyl(2-(3-fluorobicyclo[1.1.1]pentan-1-yl)acetamido)methyl)-1H-benzo[d]imidazol-2-yl)-2-((1,1,1-trifluoro-2-methylpropan-2-yl)oxy)ethyl)-1,2,5-oxadiazole-3-carboxamide] | < 50 | < 50 | –
10 | C[C@@H](NC(=O)CCC(F)(F)F)c1ccc2[nH]c([C@@H](NC(=O)c3cnn(CC4CC4)n3)C3CCC(F)(F)CC3)nc2c1 [Example 8, 2-(Cyclopropylmethyl)-N—[(S)-(4,4-difluorocyclohexyl)-[6-[(1R)-1-(4,4,4-trifluorobutanoylamino)ethyl]-1H-benzimidazol-2-yl]methyl]triazole-4-carboxamide] | > 100 | > 100 | –
11 | C[C@@H](NC(=O)CCC(F)(F)F)c1ccc2nc([C@@H](NC(=O)c3cnn(CC4CC(F)(F)C4)n3)C3CCC(F)(F)CC3)[nH]c2c1 [Example 64, 2-((3,3-Difluorocyclobutyl)methyl)-N—((S)-(4,4-difluorocyclohexyl)(6-((R)-1-(4,4,4-trifluorobutanamido)ethyl)-1H-benzo[d]imidazol-2-yl)methyl)-2H-1,2,3-triazole-4-carboxamide] | > 100 | > 100 | –
12 | Cc1nonc1C(=O)N[C@@H](COC1CC(F)(F)C1)c1nc2ccc([C@H](NC(=O)CC3CC(F)(F)C3)C3CC3)cc2[nH]1 [Example 256, N—((R)-1-(6-((R)-Cyclopropyl(2-(3,3-difluorocyclobutyl)acetamido)methyl)-1H-benzo[d]imidazol-2-yl)-2-(3,3-difluorocyclobutoxy)ethyl)-4-methyl-1,2,5-oxadiazole-3-carboxamide] | > 100 | > 100 | –
13 | Cc1nonc1C(=O)N[C@H](c1nc2cc([C@@H](NC(=O)CC3CC(F)(F)C3)C3CC3)ccc2[nH]1)C1CCC(F)(F)CC1 [Example 145, N—((S)-(5-((S)-Cyclopropyl(2-(3,3-difluorocyclobutyl)acetamido)methyl)-1H-benzo[d]imidazol-2-yl)(4,4-difluorocyclohexyl)methyl)-4-methyl-1,2,5-oxadiazole-3-carboxamide] | > 100 | > 100 | –
14 | C[C@@H](NC(=O)CCC(F)(F)F)c1ccc2[nH]c([C@@H](NC(=O)c3cn(CCC(F)(F)F)cn3)C3CCC(F)(F)CC3)nc2c1 [Example 226, N—((S)-(4,4-Difluorocyclohexyl)(5-((R)-1-(4,4,4-trifluorobutanamido)ethyl)-1H-benzo[d]imidazol-2-yl)methyl)-1-(3,3,3-trifluoropropyl)-1H-imidazole-4-carboxamide] | > 100 | > 100 | –
15 | CC(C)C(NC(=O)CCC(F)(F)F)c1ccc2[nH]c([C@@H](NC(=O)c3ccnn3C)C3CCC(F)(F)CC3)nc2c1 (single isomer, unassigned) [Example 45, N—((S)-(4,4-Difluorocyclohexyl)(5-((R*)-2-methyl-1-(4,4,4-trifluorobutanamido)propyl)-1H-benzo[d]imidazol-2-yl)methyl)-1-methyl-1H-pyrazole-5-carboxamide] | – | > 100 | 50 to 100
16 | C[C@@H](NC(=O)CCC(F)(F)F)c1ccc2[nH]c([C@@H](NC(=O)c3cnn(CCOC(F)F)c3)C3CCC(F)(F)CC3)nc2c1 [Example 27, N—[(S)-(4,4-Difluorocyclohexyl)-[6-[(1R)-1-(4,4,4-trifluorobutanoylamino)ethyl]-1H-benzimidazol-2-yl]methyl]-1-[2-(difluoromethoxy)ethyl]pyrazole-4-carboxamide] | > 100 | > 100 | –
17 | C[C@@H](NC(=O)CCC(F)(F)F)c1ccc2[nH]c([C@@H](NC(=O)C34CC(C3)C4)C3CCC(F)(F)CC3)nc2c1 [Example 112, N—((S)-(4,4-Difluorocyclohexyl)(5-((R)-1-(4,4,4-trifluorobutanamido)ethyl)-1H-benzo[d]imidazol-2-yl)methyl)bicyclo[1.1.1]pentane-1-carboxamide] | > 100 | > 100 | –
18 | C[C@H](NC(=O)CCC(F)(F)F)c1ccc2[nH]c([C@@H](NC(=O)c3ccnn3CCC(F)(F)F)C3CCC(F)(F)CC3)nc2c1 [Example 124, N—((S)-(4,4-Difluorocyclohexyl)(5-((S)-1-(4,4,4-trifluorobutanamido)ethyl)-1H-benzo[d]imidazol-2-yl)methyl)-1-(3,3,3-trifluoropropyl)-1H-pyrazole-5-carboxamide] | > 100 | > 100 | –
19 | CC(CC(=O)N[C@H](C)c1ccc2nc([C@@H](NC(=O)c3ccnn3CC(F)(F)F)C3CCC(F)(F)CC3)[nH]c2c1)C(F)(F)F (single isomer, unassigned) [Example 133, N—((S)-(4,4-Difluorocyclohexyl)(6-((R)-1-((R*)-4,4,4-trifluoro-3-methylbutanamido)ethyl)-1H-benzo[d]imidazol-2-yl)methyl)-1-(2,2,2-trifluoroethyl)-1H-pyrazole-5-carboxamide] | > 100 | > 100 | –
20 | C[C@@H](NC(=O)CCC(F)(F)F)c1ccc2[nH]c([C@@H](NC(=O)c3cnn(CCOC(F)(F)F)n3)C3CCC(F)(F)CC3)nc2c1 [Example 35, N—[(S)-(4,4-Difluorocyclohexyl)-[6-[(1R)-1-(4,4,4-trifluorobutanoylamino)ethyl]-1H-benzimidazol-2-yl]methyl]-2-[2-(trifluoromethoxy)ethyl]triazole-4-carboxamide] | > 100 | > 100 | –
21 | C[C@@H](NC(=O)CCC(F)(F)F)c1ccc2[nH]c([C@@H](NC(=O)[C@H]3C[C@@H]3F)C3CCC(F)(F)CC3)nc2c1 [Example 98, (1R,2S)—N—((S)-(4,4-Difluorocyclohexyl)(5-((R)-1-(4,4,4-trifluorobutanamido)ethyl)-1H-benzo[d]imidazol-2-yl)methyl)-2-fluorocyclopropane-1-carboxamide] | > 100 | > 100 | –
